Values of other authors, collected in patent US5183829A, “Oral liquid compositions of non-steroidal anti-inflammatory drugs” (priority 1991, dated 1993).

Settings: enteric coated tablet vs aqueous solution

O=C(O)Cc1ccccc1Nc1c(Cl)cccc1Cl [sodium diclofenac]
oral bioavailability: more bioavailable orally from an enteric coated tablet than from an aqueous solution
